Experimental data reported in ChEMBL document CHEMBL3430912, “GSK Tres Cantos Anti-Kinetoplastid Screening (TCAKS) Data”.

What was measured:
Leishmania donovani [1] = experiment: (§1) GSK_TCAKS: pIC50 Leishmania donovani Imaging: Infected Macrophages. Assay plates (384-well) were prepared by adding 250nL of compound to each well. For single shot assay, the final compound concentration was 5 uM. […] Automated image analysis was performed with a script developed on Acapella High Content Imaging and Analysis Software (PerkinElmer). Output: Percent of infected macrophage cells were reported for each well.; type: functional, organism-based, Homo sapiens; details: THP-1
Trypanosoma cruzi [2] = experiment: (§2) GSK_TCAKS: pIC50 Trypanosoma cruzi Imaging: Infected Cells. […] Cells were then washed once with PBS before infection. T. cruzi trypomastigotes, collected at days 5 to 8 after infection from LLC-MK2 parasite infected cultures, were allowed to swim out for 4h at 37C from a centrifuged pellet (2,500 rpm/10 min/room temperature). Trypomastigotes were then collected and counted in a CASY Cell Counter. Trypomastigotes, in supplemented DMEM, were added to H9c2 cultures in a multiplicity of infection of 1 and incubated for 18 h. Cells were washed once with PBS before incubation of the infected H9c2 monolayer with trypsin (Life-Technologies) to detach cells from the flask. Cells were counted in a CASY Cell Counter using a 150 um capillary and their density set at 5 * 10^4 cells per mL in supplemented assay DMEM. Infected H9c2 were dispensed into 384-well poly-lysine coated assay plates at 50uL per well using a Multidrop Combi dispenser. After seeding them, the plates were incubated at 37C, 5% CO2 for 72h. Cultures were then fixed and stained by addition of 50 uL of a solution containing 8% formaldehyde and 4 uM DRAQ5 DNA dye (BioStatus, UK) per well. […] Five images were collected per well for reliable statistical analysis. Automated image analysis was performed with a script developed on Acapella High Content Imaging and Analysis Software (PerkinElmer). Output: percentage of infected cells per well as a second infection marker.; type: functional, organism-based, Rattus norvegicus; details: H9c2, 4 h
Trypanosoma cruzi [3] = experiment: GSK_TCAKS: pIC50 Trypanosoma cruzi viability assay using beta-GAL activity. This assay was run at single shot at 5uM compound concentration per well. The biological reagents consisted of NIH-3T3 host cells and trypomastigotes parasitic cells; both cell types were set to a 3.3 * 10^5 cells/mL dilution in assay DMEM by means of a CASY cell counter device using a 60um capillary. 6 uL of the mixture were dispensed per well (about 1 * 10^3 host-cells and 1 * 10^3 parasites) with a Multidrop Combi dispenser. […] In all wells, the percentage of DMSO never exceeded 0.5%. Plates incubated for four days at 37C, 5% CO2. The substrate used for the assay fluorescence intensity (FLINT) readout was resorufin-beta-D-galactopiranoside (Sigma-Aldrich) at 5uM per well. It was diluted in PBS supplemented with the soft detergent Igepal (Fluka).; type: functional, organism-based, Mus musculus; details: Tulahuen, NIH3T3
[4] = target: Sterol 14-alpha demethylase (Trypanosoma cruzi (strain CL Brener), UniProt Q7Z1V1); experiment: GSK_TCAKS: pIC50 CYP51 from Trypanosoma cruzi.; type: functional
Sequence of Sterol 14-alpha demethylase (Q7Z1V1 whole entry): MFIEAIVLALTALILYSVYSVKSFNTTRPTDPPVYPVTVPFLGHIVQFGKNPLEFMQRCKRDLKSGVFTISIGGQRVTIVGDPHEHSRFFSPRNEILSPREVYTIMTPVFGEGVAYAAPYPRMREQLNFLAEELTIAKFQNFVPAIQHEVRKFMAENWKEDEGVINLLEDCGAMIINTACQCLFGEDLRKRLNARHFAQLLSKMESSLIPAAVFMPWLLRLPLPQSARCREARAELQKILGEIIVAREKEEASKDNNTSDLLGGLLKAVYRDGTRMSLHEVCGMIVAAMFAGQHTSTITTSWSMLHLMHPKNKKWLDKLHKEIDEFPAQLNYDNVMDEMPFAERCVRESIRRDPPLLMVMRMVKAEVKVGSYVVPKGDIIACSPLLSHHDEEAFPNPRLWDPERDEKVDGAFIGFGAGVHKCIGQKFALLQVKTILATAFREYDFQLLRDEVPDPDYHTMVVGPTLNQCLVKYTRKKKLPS

Trypanosoma cruzi [5] = experiment: GSK_TCAKS: pIC50 Trypanosoma cruzi Imaging: Amastigotes/Cell. […] Cells were then washed once with PBS before infection. T. cruzi trypomastigotes, collected at days 5 to 8 after infection from LLC-MK2 parasite infected cultures, were allowed to swim out for 4h at 37C from a centrifuged pellet (2,500 rpm/10 min/room temperature). Trypomastigotes were then collected and counted in a CASY Cell Counter. Trypomastigotes, in supplemented DMEM, were added to H9c2 cultures in a multiplicity of infection of 1 and incubated for 18 h. Cells were washed once with PBS before incubation of the infected H9c2 monolayer with trypsin (Life-Technologies) to detach cells from the flask. Cells were counted in a CASY Cell Counter using a 150 um capillary and their density set at 5 * 10^4 cells per mL in supplemented assay DMEM. Infected H9c2 were dispensed into 384-well poly-lysine coated assay plates at 50uL per well using a Multidrop Combi dispenser. After seeding them, the plates were incubated at 37C, 5% CO2 for 72h. Cultures were then fixed and stained by addition of 50 uL of a solution containing 8% formaldehyde and 4 uM DRAQ5 DNA dye (BioStatus, UK) per well. […] Five images were collected per well for reliable statistical analysis. Automated image analysis was performed with a script developed on Acapella High Content Imaging and Analysis Software (PerkinElmer). Output: number of amastigotes per cell as infection level measurement.; type: functional, organism-based, Rattus norvegicus; details: H9c2, 4 h
Trypanosoma cruzi [6] = experiment: as §2, with “H2C9” for “Trypanosoma cruzi”, “H9c2 Host Cardiomyocytes.” for “Infected Cells.”, “Number” for “percentage”, “H9c2 Host Cardiomyocytes nuclei to determine drug-related cytotoxicity.” for “infected cells per well as a second infection marker.”; type: functional, organism-based, Rattus norvegicus; details: H9c2, 4 h
Leishmania donovani [7] = experiment: GSK_TCAKS: pIC50 Leishmania donovani viability assay using fluorescence intensity. Assay plates (1536-well) were prepared by adding 30nL per well of compound. For single shot assay, the final compound concentration was 5uM. […] Briefly, eGFP LdBOB axenic amastigotes were harvested, fixed and counted in a CASY cell counter (Roche-Applied Science). A final concentration of 1.5 * 10^5 cells per well were prepared in amastigote media containing 500 U/mL penicillin/streptomycin (Invitrogen) and 6uL was dispensed to each experimental well using a Multidrop Combi dispenser (Thermo Scientific). 6uL of assay media was dispensed to control columns used as reference for 100% compound response. Following incubation for 72 h at 37C, 5% CO2, 2 uL of resazurin was added to each well at a final concentration of 0.5 mM in phosphate buffered saline (PBS) with IGEPAL (Sigma-Aldrich), 0.05% (v/v).; type: functional, organism-based
Leishmania donovani [8] = experiment: as §1, with “Amastigotes/Macrophages.” for “Infected Macrophages.”, “Average number” for “Percent”, “amastigotes per” for “infected”, “cell” for “cells”; type: functional, organism-based, Homo sapiens; details: THP-1
[9] = GSK_TCAKS: pIC50 HepG2 human cell line viability assay using luminiscence. […] Seeding density was checked to ensure that new mono-layers were not more than 50% confluent at the time of harvesting. Cell suspension was added to 500 mL of the same medium at a final density of 1.2 * 10^5 cells/mL. This cell suspension was dispensed (25 uL, 3000 cells per well) into 384-well clear-bottom plates using a Multidrop Combi dispenser. Prior to addition of the cell suspension, the screening compounds (250 nL) were pre-dispensed into the plates with an Echo liquid handler. Plates were incubated for 48 h at 37C, 5% CO2. After incubation, plates equilibrated at room temperature for 30 min before proceeding to develop the luminescent signal. The signal developer, CellTiter-Glo Reagent, was allowed to equilibrate at room temperature for 30 min and added to the plates (25uL per well) using a Multidrop Combi dispenser. Plates were left for 10 min at room temperature for stabilization and then read using a ViewLux.; type: toxicity, cell-based
[10] = system: Trypanosoma brucei brucei; experiment: GSK_TCAKS: pIC50 Trypanosoma brucei viability assay using fluorescence intensity. Assay plates (1536-well) were prepared by dispensing 25nL of compound solution per well using an Echo acoustic dispenser (Labcyte).; type: functional, organism-based; details: Lister 427, 2 h
Leishmania donovani [11] = experiment: as §1, with “THP-1 Host” for “Infected”, “THP-1 cell count” for “Percent of infected macrophage cells”; type: functional, organism-based, Homo sapiens
[12] = system: Trypanosoma brucei brucei; experiment: GSK_TCAKS: pIC50 Trypanosoma brucei viability assay using luminiscence. Assay plates (1536-well) were prepared. T. brucei cultures were harvested and counted in a CASY cell counter. A parasite suspension was prepared at a final concentration of 5 * 10^4 cells/mL in complete HMI9 medium and 6uL was dispensed to all wells containing compounds using a Multidrop Combi dispenser. 6uL of HMI9 media with 0.4% DMSO were dispensed to control columns. Plates were incubated for 24 h at 37C, 5% CO2 then tempered for 10 min at room temperature. ATP content was quantified by adding 4 uL of CellTiter-Glo Reagent (Promega) according to the manufacturer's instructions. Luminescence was measured using a ViewLux.; type: functional, organism-based; details: Lister 427, CASY

Compound	IC50 (Leishmania donovani [1]) [µM]	IC50 (Trypanosoma cruzi [2]) [µM]	IC50 (Trypanosoma cruzi [3]) [µM]	IC50 [4] [µM]	IC50 (Trypanosoma cruzi [5]) [µM]	IC50 (Trypanosoma cruzi [6]) [µM]	IC50 (Leishmania donovani [7]) [µM]	IC50 (Leishmania donovani [8]) [µM]	IC50 at 48 h [9] [µM]	IC50 [10] [µM]	IC50 (Leishmania donovani [11]) [µM]	IC50 [12] [µM]
Cc1ccnc(NS(=O)(=O)c2ccc(NC(=O)c3ccc([N+](=O)[O-])s3)cc2)n1	10	10	2	63.1	6.31	5.01	3.98	5.01	15.8	0.2	10	0.398
COc1cccc(NS(=O)(=O)c2ccc3ncc(C(=O)NCCC(C)C)c(O)c3c2)c1	> 50.1	31.6	> 50.1	6.31	15.8	12.6	> 50.1	> 50.1	31.6	0.316	> 50.1	0.631
CN1C(=O)c2ccccc2Sc2ccc(NC(=O)NCc3ccco3)cc21	> 50.1	12.6	10	31.6	6.31	25.1	> 50.1	25.1	> 100	0.398	> 50.1	0.501
CC(=O)Nc1ccc(-c2ccnc(Nc3cccc(C#N)c3)n2)cc1	15.8	6.31	6.31	25.1	3.16	12.6	39.8	10	> 100	0.631	10	0.794
O=C(NCCCn1cnc2ccccc21)c1ccc(NC(=O)c2ccco2)cc1	> 50.1	2	3.98	15.8	1.26	> 50.1	1.26	12.6	15.8	0.2	> 50.1	0.251
CCN(Cc1cccs1)C(=O)CSc1nnc(-c2ccc3c(c2)OCO3)o1	2	2.51	3.98	7.94	1.58	> 50.1	3.16	2	> 100	25.1	> 50.1	> 39.8
C=CCN(Cc1cccs1)C(=O)CSc1nnc(-c2ccc3c(c2)OCO3)o1	3.16	0.631	6.31	7.94	0.501	> 50.1	6.31	1.26	> 100	20	> 50.1	39.8
N#Cc1cnc(Nc2cccc(CCN3CCOCC3)c2)nc1Nc1ccccc1C(N)=O	1.58	3.16	1.26	10	2	0.0126	2.51	1	25.1	0.0631	0.794	0.251
CCOc1ccc(N(C)S(=O)(=O)c2ccc3[nH]cc(C(=O)NC4CCCC4)c(=O)c3c2)cc1	31.6	> 50.1	7.94	6.31	6.31	> 50.1	> 50.1	31.6	50.1	0.251	25.1	0.501
CCC(=O)N1N=C(c2ccc3c(c2)CCCC3)Sc2c1ncn2C(=O)CC	3.16	20	6.31	> 100	12.6	> 50.1	25.1	2.51	> 100	15.8	> 50.1	20
Cc1cc(NC(=O)C2CC2)ccc1OC1CCN(Cc2ccco2)CC1	20	39.8	15.8	63.1	20	39.8	> 50.1	12.6	50.1	0.126	12.6	0.251
c1ccc(Nc2nc(-c3ccccn3)cc(N3CCOCC3)n2)cc1	2	> 50.1	2	> 100	25.1	0.631	6.31	1.26	> 100	15.8	> 50.1	12.6
CCNc1cc(-c2ccccn2)nc(Nc2ccccc2)n1	0.794	3.16	0.794	> 100	3.16	0.251	2.51	0.631	25.1	25.1	20	12.6
CCNc1cc(-c2ccccn2)nc(Nc2ccc(OC)cc2)n1	0.501	3.16	0.708	39.8	2.51	0.316	1.58	0.398	39.8	12.6	25.1	10
OCC1CCCCN1c1cc(-c2ccccn2)nc(Nc2ccccc2)n1 (centres undefined)	1.26	3.98	0.794	79.4	2	0.501	3.16	1	31.6	5.01	20	6.31
Cc1ccc(Nc2nc(-c3ccccn3)cc(N3CCCC(O)C3)n2)cc1 (centres undefined)	0.794	6.31	0.501	25.1	2.51	0.501	2	0.501	39.8	3.16	25.1	3.16
COc1ccc(Nc2nc(-c3ccccn3)cc(N3CCCC(O)C3)n2)cc1 (centres undefined)	1	5.01	0.631	50.1	7.94	3.98	2.51	0.794	39.8	3.98	25.1	12.6
